Reference: US20260223861A1, “NATURAL PESTICIDAL COMPOSITIONS AND METHODS OF CONTROLLING ARTHROPODS” (TERRAMERA, INC., priority 2023, published 2026)
Several values for one entry are separate records, joined by “and”; a condition that tells them apart may be missing. Equal values may be shown once.

Tested on: German cockroaches
Test: Spraying compositions on German cockroaches, knock-down and mortality (dead incl. moribund) observed
Type: in vivo
Conditions: knocked-down and dead insects, concentrations w/w in water
Procedure: In the following in vitro examples, various compounds were combined and the resulting composition was tested for efficacy. Each composition was mixed using a magnetic stir bar at room temperature (21° C.), except as otherwise noted herein. […] Water-insoluble and/or -immiscible ingredients, such as wintergreen oil, geraniol, oleic acid, and Na oleate, were dissolved and mixed as a separate fraction (the water-insoluble fraction). The water-insoluble fraction was then mixed with the water-soluble fraction by gentle stirring. All tested compositions comprised the tested compounds in solution with water. Each composition was tested for efficacy by spraying the composition on German cockroaches and observing the number of knocked-down and dead (including moribund) insects twice, once at 5 minutes after spraying and once at 48 hours after spraying. Either such measure of knock-down and mortality can be important in certain contexts. For example, 5-minute knock-down and mortality can be important in consumer contexts, as efficacy is often assessed over a short interval in such contexts. Shorter intervals, such as 30 seconds or 1 minute, are also or alternatively sometimes used in such contexts. As another example, 48-hour knock-down and mortality can be important in agricultural or industrial contexts, as total reduction in pest pressure may be more readily assessed over longer periods in such contexts. […] Ingredients were also tested for efficacy on their own (in dilution in water to provide the same concentration of the ingredient as in the tested compositions) using the same testing procedure. An expected efficacy for each formulation was determined based on the ingredients' individual tested efficacies based on the Colby equation, as described in greater detail by Ferry, Nancy; Stanley, Bruce H.; and Armel, Gregory (2005). “DESIGN AND […] OF BIOLOGICAL ASSAYS OF MIXTURES,” Conference on Applied Statistics in Agriculture. https://doi.org/10.4148/2475-7772.1133. Compositions with efficacy greater than this expected efficacy were determined to show synergistic efficacy.

[1] = 5 minutes after spraying, sulfate
[2] = 48 hours after spraying, sulfate

| SMILES | Observed Efficacy (5 minutes after spraying) | Observed Efficacy (48 hours after spraying) | also measured |
| --- | --- | --- | --- |
| CCCCOC(=O)C(C)O (stereo not shown) [Butyl Lactate (2.5%), Butyl lactate] | 0% | 0% | – |
| CCCCOC(=O)C(C)O (stereo not shown) [Butyl Lactate (5%), Butyl lactate] | 13% | 13% | – |
| CCCCOC(=O)C(C)O (stereo not shown) [Butyl Lactate (10%), Butyl lactate] | 7% | 7% | – |
| CCCCOC(=O)C(C)O (stereo not shown) [Butyl Lactate (20%), Butyl lactate] | 13% | 13% | – |
| CC(C)=CCC/C(C)=C/CO [Geraniol (2.5%), Geraniol] | 20% | 20% | – |
| CC(C)=CCC/C(C)=C/CO [Geraniol (5%), Geraniol] | 7% | 7% | – |
| CC(C)=CCC/C(C)=C/CO [Geraniol (10%), Geraniol] | 27% | 27% | – |
| CC(C)=CCC/C(C)=C/CO [Geraniol (20%), Geraniol] | 5% | 5% | – |
| CCCCCCCC/C=C\CCCCCCCC(=O)OCC(O)CO (stereo not shown) [Glycerol Monooleate (1.25%), Glycerol monooleate] | 0% | 0% | – |
| CC(C)O [Isopropyl alcohol (5%), Isopropyl alcohol] | 0% | 0% | – |
| CC(C)O [Isopropyl alcohol (10%), Isopropyl alcohol] | 0% | 0% | – |
| [Cl-].[Na+] [NaCl (2.5%), NaCl] | 0% | 0% | – |
| CCCCCCCC/C=C\CCCCCCCC(=O)O [Oleic Acid (5%), Oleic acid] | 0% | 0% | – |
| CCCCCCCC/C=C\CCCCCCCC(=O)O [Oleic Acid (20%), Oleic acid] | 5% and 0% | 5% and 0% | – |
| CCCCCCCCCCCCOS(=O)(=O)[O-].[Na+] [Sodium Lauryl Sulfate (1.25%), Sodium lauryl sulfate] | – | – | Observed Efficacy [1]: 0%; Observed Efficacy [2]: 0% |
| CCCCCCCCCCCCOS(=O)(=O)[O-].[Na+] [Sodium Lauryl Sulfate (2.5%), Sodium lauryl sulfate] | – | – | Observed Efficacy [1]: 0%; Observed Efficacy [2]: 0% |
| CCCCCCCCCCCCOS(=O)(=O)[O-].[Na+] [Sodium Lauryl Sulfate (5%), Sodium lauryl sulfate] | – | – | Observed Efficacy (5 minutes after spraying, listed as Sodium lauryl sulfate (5%), sulfate): 7%; Observed Efficacy [1]: 7%; Observed Efficacy (48 hours after spraying, listed as Sodium lauryl sulfate (5%), sulfate): 7%; Observed Efficacy [2]: 7% |
| CCCCCCCCCCCCOS(=O)(=O)[O-].[Na+] [Sodium Lauryl Sulfate (10%), Sodium lauryl sulfate] | – | – | Observed Efficacy (5 minutes after spraying, listed as Sodium lauryl sulfate (10%), sulfate): 0%; Observed Efficacy [1]: 0%; Observed Efficacy (48 hours after spraying, listed as Sodium lauryl sulfate (10%), sulfate): 0%; Observed Efficacy [2]: 0% |
